Laboratory results from ChEMBL document CHEMBL4422644, “Synthesis and evaluation of α-aminoacyl amides as antitubercular agents effective on drug resistant tuberculosis” (Eur J Med Chem, 2019).
Converted amounts (≈) assume the structure as drawn.

What was measured:
[1] = Cytotoxicity against HEK cells after 24 hrs by MTT assay; type: cell-based; settings: Homo sapiens, HEK293, 24 h
DU-145 = assay: Cytotoxicity against human DU145 cells after 24 hrs by MTT assay; type: functional, cell-based; settings: DU-145, 24 h
Escherichia coli = assay: Antibacterial activity against Escherichia coli ATCC 25922 after 24 hrs; type: functional; settings: ATCC 25922, 24 h
Klebsiella pneumoniae = assay: Antibacterial activity against Klebsiella pneumoniae ATCC BAA-1705 after 24 hrs; type: functional; settings: ATCC BAA-1705, 24 h
[2] = test system: Mycolicibacterium fortuitum; assay: Antibacterial activity against Mycobacterium fortuitum after 7 days by alamar blue assay; type: functional; settings: 168 h
[3] = Selectivity index, ratio of IC50 for CHOK1 cells to MIC for Mycobacterium tuberculosis H37Rv; type: toxicity; settings: hamster, read-out: Selectivity Index
Acinetobacter baumannii = assay: Antibacterial activity against Acinetobacter baumannii ATCC BAA-1605 after 24 hrs; type: functional; settings: ATCC BAA-1605, 24 h
Pseudomonas aeruginosa = assay: Antibacterial activity against Pseudomonas aeruginosa ATCC 27853 after 24 hrs; type: functional; settings: ATCC 27853, 24 h
CHO-K1 = assay: Cytotoxicity against CHOK1 cells after 24 hrs by MTT assay; type: cell-based; settings: Cricetulus griseus, CHO-K1, 24 h
MCF7 = assay: Cytotoxicity against human MCF7 cells after 24 hrs by MTT assay; type: functional, cell-based; settings: MCF7, 24 h
[4] = Cytotoxicity against […] B16 cells after 24 hrs by MTT assay; type: functional, cell-based; settings: B16, 24 h
Mycobacteroides chelonae = assay: Antibacterial activity against Mycobacterium chelonae after 7 days by alamar blue assay; type: functional; settings: 168 h
Staphylococcus aureus = assay: Antibacterial activity against Staphylococcus aureus ATCC 29213 after 24 hrs; type: functional; settings: ATCC 29213, 24 h
HepG2 = assay: Cytotoxicity against human HepG2 cells after 24 hrs by MTT assay; type: functional, cell-based; settings: HepG2, 24 h
[5] = test system: Mycobacteroides abscessus; assay: Antibacterial activity against Mycobacterium abscessus after 7 days by alamar blue assay; type: functional; settings: 168 h
HeLa = assay: Cytotoxicity against human HeLa cells after 24 hrs by MTT assay; type: functional, cell-based
A549 = assay: Cytotoxicity against human A549 cells after 24 hrs by MTT assay; type: functional, cell-based; settings: A549, 24 h
[6] = test system: Mycobacterium tuberculosis; assay: Antitubercular activity against Mycobacterium tuberculosis H37Rv after 7 days by alamar blue assay; type: functional; settings: 168 h

Row | SMILES | IC50 [1] [µM] | IC50 (DU-145) [µM] | MIC (Escherichia coli) [µM] | MIC (Klebsiella pneumoniae) [µM] | MIC [2] [µM] | selectivity ratio [3] | MIC (Acinetobacter baumannii) [µM] | MIC (Pseudomonas aeruginosa) [µM] | IC50 (CHO-K1) [µM] | IC50 (MCF7) [µM] | IC50 [4] [µM] | MIC (Mycobacteroides chelonae) [µM] | MIC (Staphylococcus aureus) [µM] | IC50 (HepG2) [µM] | MIC [5] [µM] | IC50 (HeLa) [µM] | IC50 (A549) [µM] | MIC [6] [µM]
1 | Cc1ccc(N(C(=O)c2c(C)noc2C)C(C(=O)NC2CCCCC2)c2cccnc2)cc1 (configuration not stated) | 82 | 11 | > 50 | > 50 | > 50 | 17.9 | > 50 | > 50 | 112 | 5.39 | 40 | > 50 | > 50 | 10.3 | > 50 | 18.2 | 12.9 | 6.12 (≈ 2.73 µg/mL)
2 | Cc1cccc(N(C(=O)c2ccc[nH]2)C(C(=O)NC2CCCCC2)c2ccncc2)c1C (configuration not stated) | 108 | 10.8 | > 50 | > 50 | > 50 | 22.6 | > 50 | > 50 | 142 | 5.85 | 16.6 | > 50 | > 50 | 8.95 | > 50 | 13.1 | 15.8 | 6.25 (≈ 2.69 µg/mL)
3 | Cc1ccc(N(C(=O)c2sc(C)nc2C)C(C(=O)NC2CCCCC2)c2ccncc2)cc1 (configuration not stated) | 81.1 | 14.5 | > 50 | > 50 | > 50 | 11.3 | > 50 | > 50 | 141 | 10.3 | 23.9 | > 50 | > 50 | 12 | > 50 | 11 | 11.6 | 12.5 (≈ 5.78 µg/mL)
4 | Cc1cccc(N(C(=O)c2ccncc2)C(C(=O)NC2CCCCC2)c2cccnc2)c1C (configuration not stated) | 86.1 | 20.2 | > 50 | > 50 | > 50 | 11.3 | > 50 | > 50 | 171 | 6.14 | 19.8 | > 50 | > 50 | 12.7 | > 50 | 11.2 | 11.8 | 3.12 (≈ 1.38 µg/mL)
5 | Cc1cccc(N(C(=O)c2ccc[nH]2)C(C(=O)NC2CCCCC2)c2ccccc2)c1C (configuration not stated) | 116 | 11.2 | > 50 | > 50 | > 50 | 10.7 | > 50 | > 50 | 134 | 3.58 | 12.3 | > 50 | > 50 | 11 | > 50 | 14.2 | 6.83 | 12.5 (≈ 5.37 µg/mL)
6 | Cc1ccc(N(C(=O)c2sc(C)nc2C)C(C(=O)NC2CCCCC2)c2ccc[nH]2)cc1 (configuration not stated) | 15.4 | 12.7 | > 50 | > 50 | > 50 | 5.3 | > 50 | > 50 | 33.4 | 4.25 | 14.5 | > 50 | > 50 | 6.13 | > 50 | 11.6 | 11.7 | 6.25 (≈ 2.82 µg/mL)
7 | Cc1nc(C)c(C(=O)N(c2cccc(C)c2C)C(C(=O)NC2CCCCC2)c2ccc(Cl)cc2)s1 (configuration not stated) | 90.5 | 8.53 | > 50 | > 50 | > 50 | 3.5 | > 50 | > 50 | 11.4 | 4.12 | 21 | > 50 | > 50 | 6.15 | > 50 | 13.9 | 9.2 | 3.12 (≈ 1.59 µg/mL)
8 | Cc1ccc(N(C(=O)c2ccc[nH]2)C(C(=O)NC2CCCCC2)c2cccnc2)cc1 (configuration not stated) | 120 | 15.5 | > 50 | > 50 | > 50 | 10.7 | > 50 | > 50 | 135 | 5.61 | 18.4 | > 50 | > 50 | 11.5 | > 50 | 12 | 15.2 | 12.5 (≈ 5.21 µg/mL)
9 | Cc1nc(C)c(C(=O)N(c2cccc(C)c2C)C(C(=O)NCc2ccccc2)c2ccccc2)s1 (configuration not stated) | 31.2 | 12.6 | > 50 | > 50 | > 50 | 4.9 | > 50 | > 50 | 30.2 | 5.62 | 12.4 | > 50 | > 50 | 8.13 | > 50 | 11.7 | 12.7 | 6.12 (≈ 2.96 µg/mL)
10 | Cc1ccc(N(C(=O)c2sc(C)nc2C)C(C(=O)NC2CCCCC2)c2ccccc2)c(C)c1 (configuration not stated) | 47 | 11.4 | > 50 | > 50 | > 50 | 3.4 | > 50 | > 50 | 43 | 11.7 | 29.8 | > 50 | > 50 | 12.6 | > 50 | 9.43 | 8.63 | 12.5 (≈ 5.95 µg/mL)
11 | Cc1ccc(N(C(=O)c2ccc[nH]2)C(C(=O)NC2CCCCC2)c2ccccc2)c(C)c1 (configuration not stated) | 33.2 | 9.3 | > 50 | > 50 | > 50 | 10.8 | > 50 | > 50 | 68.2 | 15.5 | 32.5 | > 50 | > 50 | 13.5 | > 50 | 10.9 | 15.5 | 6.25 (≈ 2.68 µg/mL)
12 | Cc1ccc(N(C(=O)c2sc(C)nc2C)C(C(=O)NC2CCCCC2)c2cccc(C(F)(F)F)c2)cc1 (configuration not stated) | 59.8 | 11.8 | – | – | – | 6.8 | – | – | 42.7 | 5.7 | 11.6 | – | – | 8.14 | – | 16.4 | 13.9 | 6.25 (≈ 3.31 µg/mL)
13 | Cc1cccc(N(C(=O)c2c(C)noc2C)C(C(=O)NC2CCCCC2)c2cccnc2)c1C (configuration not stated) | 76.9 | 12 | > 50 | > 50 | > 50 | 21.7 | > 50 | > 50 | 137 | 6.62 | 32.7 | > 50 | > 50 | 11.8 | > 50 | 14.1 | 12.8 | 6.25 (≈ 2.88 µg/mL)
14 | Cc1ccc(N(C(=O)c2ccncc2)C(C(=O)NC2CCCCC2)c2cccnc2)cc1 (configuration not stated) | – | – | > 50 | > 50 | > 50 | – | > 50 | > 50 | – | – | – | > 50 | > 50 | – | > 50 | – | – | 25 (≈ 10.7 µg/mL)
15 | Cc1nc(C)c(C(=O)N(c2c(C)cccc2C)C(C(=O)NC2CCCCC2)c2ccccc2)s1 (configuration not stated) | – | – | > 50 | > 50 | > 50 | – | > 50 | > 50 | – | – | – | > 50 | > 50 | – | > 50 | – | – | 25 (≈ 11.9 µg/mL)
16 | Cc1cc(C)c(N(C(=O)c2sc(C)nc2C)C(C(=O)NC2CCCCC2)c2ccccc2)c(C)c1 (configuration not stated) | 51.2 | 11.7 | > 50 | > 50 | > 50 | 8 | > 50 | > 50 | 25.9 | 3.56 | 11.7 | > 50 | > 50 | 6.37 | > 50 | 10.9 | 2.75 | 3.25 (≈ 1.59 µg/mL)
17 | Cc1cccc(N(C(=O)c2ccncc2)C(C(=O)NC2CCCCC2)c2ccncc2)c1C (configuration not stated) | – | – | > 50 | > 50 | > 50 | – | > 50 | > 50 | – | – | – | > 50 | > 50 | – | > 50 | – | – | 25 (≈ 11.1 µg/mL)
18 | Cc1cccc(N(C(=O)c2c(C)noc2C)C(C(=O)NC2CCCCC2)c2ccncc2)c1C (configuration not stated) | – | – | > 50 | > 50 | > 50 | – | > 50 | > 50 | – | – | – | > 50 | > 50 | – | > 50 | – | – | 25 (≈ 11.5 µg/mL)
19 | COc1cccc2c1C(=O)c1c(O)c3c(c(O)c1C2=O)C[C@@](O)(C(=O)CO)C[C@@H]3O[C@H]1C[C@H](N)[C@H](O)[C@H](C)O1 [DOXORUBICIN] | 0.01 | 0.363 | – | – | – | – | – | – | – | 2 | 0.7 | – | – | 0.72 | – | 0.8 | 0.55 | –
